Laboratory results taken from patent US20250230147A1, “LACTAMS AS CBL-B INHIBITORS” (Genentech, Inc., priority 2021, published 2025).
Structures can show the parent of a compound that is named as a salt.

Columns and labels:
Cbl-b = Cbl-b (Homo sapiens (Human), UniProt Q13191); assay: Cbl-b LCK Ub TR-FRET assay (Cbl-b Lck HTRF); type: biochemical
How it was run: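 Biotin-Cbl-b preincubated with compound (10-point 3-fold series) 60 min, then His-LCK with 1 mM ATP (2× mixture) added for 90 min at room temperature. Ubiquitination detected by TR-FRET using HA-ubiquitin/UBE2D2 adduct, anti-HA-D2 and streptavidin-Eu; IC50 normalised to no-LCK and DMSO controls.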

c-Cbl = c-Cbl (Homo sapiens (Human), UniProt P22681); assay: C-Cbl LCK Ub TR-FRET assay (c-cbl Lck HTRF); type: biochemical; conditions: for (fold-selectivity): C-cbl Lck HTRF IC50 relative to Cbl-b Lck HTRF IC50
How it was run: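 Signal is read once the detection mix has stood 20 min at ambient temperature. Curves are anchored by DMSO as maximum and by omission of LCK as minimum.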

Sequence of Cbl-b (Q13191 40-426): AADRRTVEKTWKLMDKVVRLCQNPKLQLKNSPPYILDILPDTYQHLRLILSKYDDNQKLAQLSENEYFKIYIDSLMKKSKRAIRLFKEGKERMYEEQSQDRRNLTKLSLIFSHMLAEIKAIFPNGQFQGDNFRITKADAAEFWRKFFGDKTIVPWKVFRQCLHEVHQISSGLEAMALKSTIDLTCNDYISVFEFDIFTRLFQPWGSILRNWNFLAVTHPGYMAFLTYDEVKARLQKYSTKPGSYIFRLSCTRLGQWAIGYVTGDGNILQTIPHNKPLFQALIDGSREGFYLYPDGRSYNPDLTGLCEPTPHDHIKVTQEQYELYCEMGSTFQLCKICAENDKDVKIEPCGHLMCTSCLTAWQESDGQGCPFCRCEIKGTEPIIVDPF
Sequence of c-Cbl (P22681 47-435): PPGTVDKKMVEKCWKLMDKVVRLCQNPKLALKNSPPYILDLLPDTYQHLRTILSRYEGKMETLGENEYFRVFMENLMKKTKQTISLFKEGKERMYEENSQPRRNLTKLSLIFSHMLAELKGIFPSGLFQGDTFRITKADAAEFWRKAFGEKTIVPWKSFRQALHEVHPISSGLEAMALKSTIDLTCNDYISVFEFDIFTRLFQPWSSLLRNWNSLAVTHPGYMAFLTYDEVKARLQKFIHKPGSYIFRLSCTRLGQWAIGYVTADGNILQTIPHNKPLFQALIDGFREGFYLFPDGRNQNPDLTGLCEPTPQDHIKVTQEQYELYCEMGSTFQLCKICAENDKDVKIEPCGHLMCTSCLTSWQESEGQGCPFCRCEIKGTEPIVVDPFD

`CCOc1cc(C2(Cc3nncn3C)CCC2)cc(N2Cc3c(cc(CN4CCN(C)C[C@@H]4C(C)C)cc3C(F)(F)F)C2=O)n1` [Compound 404, (S)-2-(6-ethoxy-4-(1-((4-methyl-4H-1,2,4-triazol-3-yl)methyl)cyclobutyl)pyridin-2-yl)-6-((2-isopropyl-4-methylpiperazin-1 - yl)methyl)-4-(trifluoromethyl)isoindolin-1-one] was tested, and the IC50 (Cbl-b) was 10 nM, the IC50 (c-Cbl) was 5.4 nM and the “(fold-selectivity)” value (c-Cbl) was “(0.54x)”.

`Cn1cnnc1[C@H](F)C1(c2cccc(N3Cc4c(cc(CN5CC[C@@H](F)C5)cc4C(F)(F)F)C3=O)c2)COC1` [Compound 80, 2-(3-(3-((R)-fluoro(4-methyl-4H-1,2,4-triazol-3-yl)methyl)oxetan-3-yl)phenyl)-6-(((R)-3-fluoropyrrolidin-1-yl)methyl)-4-(trifluoromethyl)isoindolin-1-one] was tested, and the IC50 (Cbl-b) was 110 nM, the IC50 (c-Cbl) was 290 nM and the “(fold-selectivity)” value (c-Cbl) was 2.6x.

`CNCc1cc2c(c(C(F)(F)F)c1)CN(c1cc(C3(Cc4nncn4C)COC3)cc(NC3CCCC3)n1)C2=O` [Compound 277, 2-(6-(cyclopentylamino)-4-(3-((4-methyl-4H-1,2,4-triazol-3-yl)methyl)oxetan-3-yl)pyridin-2-yl)-6-((methylamino)methyl)-4-(trifluoromethyl)isoindolin-1-one] was tested, and the IC50 (Cbl-b) was 230 nM, the IC50 (c-Cbl) was 870 nM and the “(fold-selectivity)” value (c-Cbl) was “(3.8x)”.

With `Cn1cnnc1[C@H](F)C1(c2cccc(N3Cc4c(cc(CN5CC(C)(C)C5)cc4C(F)(F)F)C3=O)c2)COC1` [Compound 72, (R)-6-((3,3-dimethylazetidin-1-yl)methyl)-2-(3-(3-(fluoro(4-methyl-4H-1,2,4-triazol-3-yl)methyl)oxetan-3-yl)phenyl)-4-(trifluoromethyl)isoindolin-1-one] the IC50 (Cbl-b) was 55 nM, the IC50 (c-Cbl) was 110 nM and the “(fold-selectivity)” value (c-Cbl) was 2.1x.

In the case of `Cn1cnnc1[C@@H](F)C1(c2cccc(N3Cc4c(cc(CN5CC6(COC6)C5)cc4C(F)(F)F)C3=O)c2)COC1` [Compound 10, (S)-6-(2-oxa-6-azaspiro[3.3]heptan-6-ylmethyl)-2-(3-(3-(fluoro(4-methyl-4H-1,2,4-triazol-3-yl)methyl)oxetan-3-yl)phenyl)-4-(trifluoromethyl)isoindolin-1-one], the IC50 (Cbl-b) is reported as 500 nM, the IC50 (c-Cbl) is reported as 1100 nM and the “(fold-selectivity)” value (c-Cbl) is reported as 2.3x.

For `CC(C)[C@H]1CN(C2COC2)CCN1Cc1cc2c(c(C(F)(F)F)c1)CN(c1cccc(C3([C@H](F)c4nncn4C)COC3)c1)C2=O` [Compound 199, 2-(3-(3-((S)-fluoro(4-methyl-4H-1,2,4-triazol-3-yl)methyl)oxetan-3-yl)phenyl)-6-(((S)-2-isopropyl-4-(oxetan-3-yl)piperazin-1-yl)methyl)-4-(trifluoromethyl)isoindolin-1-one], the IC50 (Cbl-b) was 19 nM, the IC50 (c-Cbl) was 56 nM and the “(fold-selectivity)” value (c-Cbl) was 2.9x.

`Cn1cnnc1CC1(c2cccc(N3Cc4c(cc(CN5CCC[C@](C)(O)C5)cc4C(F)(F)F)C3=O)c2)CC(F)(F)C1` [Compound 440, (S)-2-(3-(3,3-difluoro-1-((4-methyl-4H-1,2,4-triazol-3-yl)methyl)cyclobutyl)phenyl)-6-((3-hydroxy-3-methylpiperidin-1-yl)methyl)-4-(trifluoromethyl)isoindolin-1-one] was tested, and the IC50 (Cbl-b) was 140 nM, the IC50 (c-Cbl) was 110 nM and the “(fold-selectivity)” value (c-Cbl) was “(0.79x)”.

With `CC(C)[C@H]1CN(Cc2cc3c(c(C(F)(F)F)c2)CN(c2cccc(C4([C@@H](F)c5nncn5C)COC4)c2)C3=O)CCN1` [Compound 90, 2-(3-(3((R)-fluoro(4-methyl-4H-1,2,4-triazol-3-yl)methyl)oxetan-3-yl)phenyl)-6-(((S)-3-isopropylpiperazin-1-yl)methyl)-4-(trifluoromethyl)isoindolin-1-one] the IC50 (Cbl-b) was 42 nM, the IC50 (c-Cbl) was 58 nM and the “(fold-selectivity)” value (c-Cbl) was 1.4x.

`Cn1cnnc1CC1(c2cccc(N3Cc4c(cc(CN5CCC6(CC6)C5)cc4C(F)(F)F)C3=O)c2)CC(F)(F)C1` [Compound 106, 6((5-azaspiro[2.4]heptan-5-yl)methyl)-2-(3-(3,3-difluoro-1-((4-methyl-4H-1,2,4-triazol-3-yl)methyl)cyclobutyl)phenyl)-4-(trifluoromethyl)isoindolin-1-one] was tested, and the IC50 (Cbl-b) was 18 nM, the IC50 (c-Cbl) was 15 nM and the “(fold-selectivity)” value (c-Cbl) was 0.81x.

In the case of `COc1cccc2c1CN(c1cccc(C3([C@@H](F)c4nncn4C)COC3)c1)C2=O` [Compound 206, (R)-2-(3-(3-(fluoro(4-methyl-4H-1,2,4-triazol-3-yl)methyl)oxetan-3-yl)phenyl)-4-methoxyisoindolin-1-one], the IC50 (Cbl-b) is reported as 1500 nM, the IC50 (c-Cbl) is reported as 2300 nM and the “(fold-selectivity)” value (c-Cbl) is reported as 1.5x.

In the case of `Cn1cnnc1[C@@H](F)[C@](C)(F)c1cccc(N2Cc3c(cc(CN4CC(C)(F)C4)cc3C(F)(F)F)C2=O)c1` [Compound 34], the IC50 (Cbl-b) is reported as 380 nM, the IC50 (c-Cbl) is reported as 760 nM and the “(fold-selectivity)” value (c-Cbl) is reported as 2.0x.

In the case of `CC1CN(Cc2cc3c(c(C(F)(F)F)c2)CN(c2cccc(C4([C@H](F)c5nncn5C)COC4)c2)C3=O)CCCO1` (stereo partly drawn) [Compound 120, 2-(3-(3-((S)-fluoro(4-methyl-4H-1,2,4-triazol-3-yl)methyl)oxetan-3-yl)phenyl)-6-((2-methyl-1,4-oxazepan-4-yl)methyl)-4-(trifluoromethyl)isoindolin-1-one], the IC50 (Cbl-b) is reported as 36 nM, the IC50 (c-Cbl) is reported as 44 nM and the “(fold-selectivity)” value (c-Cbl) is reported as 1.2x.

In the case of `CC(C)[C@H]1CN(C)CCN1Cc1cc2c(c(C(F)(F)F)c1)CN(c1cccc(C3([C@@H](F)c4nncn4C(F)F)COC3)c1)C2=O` [Compound 267, 2-(3-(3-((R)-(4-(difluoromethyl)-4H-1,2,4-triazol-3-yl)fluoromethyl)oxetan-3-yl)phenyl)-6-(((S)-2-isopropyl-4-methylpiperazin-1-yl)methyl)-4-(trifluoromethyl)isoindolin-1-one], the IC50 (Cbl-b) is reported as 17 nM, the IC50 (c-Cbl) is reported as 17 nM and the “(fold-selectivity)” value (c-Cbl) is reported as “(1.0x)”.

For `Cn1cnnc1[C@@H](F)C1(c2cccc(N3Cc4c(cc(CN5CCC[C@@H]5CO)cc4C(F)(F)F)C3=O)c2)COC1` [Compound 148, 2-(3-(3-((S)-fluoro(4-methyl-4H-1,2,4-triazol-3-yl)methyl)oxetan-3-yl)phenyl)-6-(((R)-2-(hydroxymethyl)pyrrolidin-1-yl)methyl)-4-(trifluoromethyl)isoindolin-1-one], the IC50 (Cbl-b) was 690 nM, the IC50 (c-Cbl) was 730 nM and the “(fold-selectivity)” value (c-Cbl) was 1.1x.

`COCC1(O)CN(Cc2cc3c(c(C(F)(F)F)c2)CN(c2cccc(C4([C@@H](F)c5nncn5C)COC4)c2)C3=O)C1` [Compound 185, (R)-2-(3-(3-(fluoro(4-methyl-4H-1,2,4-triazol-3-yl)methyl)oxetan-3-yl)phenyl)-6-((3-hydroxy-3-(methoxymethyl)azetidin-1-yl)methyl)-4-(trifluoromethyl)isoindolin-1-one] was tested, and the IC50 (Cbl-b) was 72 nM, the IC50 (c-Cbl) was 110 nM and the “(fold-selectivity)” value (c-Cbl) was 1.5x.

In the case of `Cn1cnnc1[C@H](F)C1(c2cccc(N3Cc4c(cc(CN5CCCC5)cc4C(F)(F)F)C3=O)c2)CC(F)(F)C1` [Compound 395, (R)-2-(3-(3,3-difluoro-1-(fluoro(4-methyl-4H-1,2,4-triazol-3-yl)methyl)cyclobutyl)phenyl)-6-(pyrrolidin-1-ylmethyl)-4-(trifluoromethyl)isoindolin-1-one], the IC50 (Cbl-b) is reported as 110 nM, the IC50 (c-Cbl) is reported as 110 nM and the “(fold-selectivity)” value (c-Cbl) is reported as “(1.0x)”.

Compound `CCNC(=O)CNc1cc(C2(Cc3nncn3C)CCC2)cc(N2Cc3c(cc(CNC4(C)CCC4)cc3C(F)(F)F)C2=O)n1` [Compound 307, N-ethyl-2-((4-(1-((4-methyl-4H-1,2,4-triazol-3-yl)methyl)cyclobutyl)-6-(6-(((1-methylcyclobutyl)amino)methyl)-1-oxo-4-(trifluoromethyl)isoindolin-2-yl)pyridin-2-yl)amino)acetamide formate] has an IC50 (Cbl-b) of 180 nM and an IC50 (c-Cbl) of 310 nM.

`Cn1cnnc1[C@H](F)C1(c2cccc(N3Cc4c(cc(CN5CC(C(F)F)C5)cc4C(F)(F)F)C3=O)c2)COC1` [Compound 137, (R)-6-((3-(difluoromethyl)azetidin-1-yl)methyl)-2-(3-(3-(fluoro(4-methyl-4H-1,2,4-triazol-3-yl)methyl)oxetan-3-yl)phenyl)-4-(trifluoromethyl)isoindolin-1-one] was tested, and the IC50 (Cbl-b) was 29 nM, the IC50 (c-Cbl) was 57 nM and the “(fold-selectivity)” value (c-Cbl) was 1.9x.

`Cn1cnnc1[C@H](F)C1(c2cccc(N3Cc4c(Cl)cccc4C3=O)c2)COC1` [Compound 204, (R)-4-chloro-2-(3-(3-(fluoro(4-methyl-4H-1,2,4-triazol-3-yl)methyl)oxetan-3-yl)phenyl)isoindolin-1-one] was tested, and the IC50 (Cbl-b) was 210 nM, the IC50 (c-Cbl) was 660 nM and the “(fold-selectivity)” value (c-Cbl) was 3.1x.

For `COC1(C)CN(Cc2cc3c(c(C(F)(F)F)c2)CN(c2cccc(C4([C@@H](F)c5nncn5C)COC4)c2)C3=O)C1` [Compound 179, (R)-2-(3-(3-(fluoro(4-methyl-4H-1,2,4-triazol-3-yl)methyl)oxetan-3-yl)phenyl)-6-((3-methoxy-3-methylazetidin-1-yl)methyl)-4-(trifluoromethyl)isoindolin-1-one], the IC50 (Cbl-b) was 54 nM, the IC50 (c-Cbl) was 110 nM and the “(fold-selectivity)” value (c-Cbl) was 2.1x.

In the case of `Cn1cnnc1CC1(c2cccc(N3Cc4c(cc(CNC5(C)CCC5)cc4C(F)(F)F)C3=O)c2)CC(F)(F)C1` [Compound 232, 2-(3-(3,3-difluoro-1-((4-methyl-4H-1,2,4-triazol-3-yl)methyl)-cyclobutyl)phenyl)-6-(((1-methylcyclobutyl)amino)methyl)-4-(trifluoromethyl)isoindolin-1-one], the IC50 (Cbl-b) is reported as 11 nM, the IC50 (c-Cbl) is reported as 8 nM and the “(fold-selectivity)” value (c-Cbl) is reported as “(0.80x)”.

With `C[C@@H]1CN(Cc2cc3c(c(C(F)(F)F)c2)CN(c2cccc(C4(Cc5nncn5C)CC(F)(F)C4)c2)C3=O)CCN1` [Compound 424, (R)-2-(3-(3,3-difluoro-1-((4-methyl-4H-1,2,4-triazol-3-yl)methyl)cyclobutyl)phenyl)-6-((3-methylpiperazin-1-yl)methyl)-4-(trifluoromethyl)isoindolin-1-one] the IC50 (Cbl-b) was 42 nM, the IC50 (c-Cbl) was 31 nM and the “(fold-selectivity)” value (c-Cbl) was “(0.73x)”.
